Laboratory results from PMC7546004, “Targeting BCL10 by small peptides for the treatment of B cell lymphoma” (Theranostics, 2020).
Where two headings read alike, the source gives them in different places. Square brackets hold non-standard residues; d marks the D form. Ends that are not written are not given here. Peptide text beside a SMILES is read from it. * marks the point of attachment. Cbz = O=C(OCc1ccccc1)*

How the values were obtained:
HBL1 cells [1] = type: cell-based
From the text: (§1) GraphPad Prism software was used to determine GI50 values.

[2] = tested on: NF-κB target genes in TMD8 cells; experiment: RNA-seq gene set enrichment analysis of NF-κB target genes; type: cell-based; details: BCL10-P4 5 μM, ibrutinib 10 nM, 8 h and 24 h, duplicate
Description: 1:100 dilution for 15 min at room temperature in the dark. Signals from FL1 and FL3 channels were collected by MACSQuant analyzer and data were analyzed using FloJo (Ashland, OR). Early apoptosis was defined as AnnexinV+/PI-, and late apoptosis as AnnexinV+/PI+. Percentage of apoptotic cells were the sum of early and late apoptotic cells.
For cell cycle analysis, cells were washed twice with cold PBS and fixed in 70% ethanol overnight at 4°C. Fixed cells were collected at 1800 rpm for 10 min and stained with PBS containing PI and DNase-free RNase A (Sigma-Aldrich) for 1h at room temperature in the dark. DNA content was measured by BD LSRII flow cytometer and data were analyzed in FloJo. […]
All extracts were treated with DNase in column during RNA purification. RNA integrity was determined on an Agilent 2100 Bioanalyzer (Agilent Technologies, SantaClara, CA). […]
RNAseq raw data are analyzed with the Salmon software 30 using default settings. Log2Fold changes and P values of differentiation gene expression between different samples are calculated using the Bioconductor - DESeq2 R package 31 using default settings. […]
Six-week-old female NOD prkdc-/- IL-2Rg-/- (NCG) mice purchased from GemPharmatech Co., Lt d we re raised in a SPF- level Laboratory Animal Room. […] Tumor volumes were monitored by a digital caliper every other day and calculated using the formula: (smallest diameter2 x largest diameter)/2. […]

BCL10 [3] = target: T1, BCL10 (Homo sapiens, UniProt O95999); experiment: In vitro BCL10 filamentation assay (negative-stain electron microscopy); type: biochemical; details: MBP-BCL10 and peptide premixed at 1:1 or 1:2 molar ratio, RT 30 min, then TEV cleavage
T1 sequence (O95999 1-233): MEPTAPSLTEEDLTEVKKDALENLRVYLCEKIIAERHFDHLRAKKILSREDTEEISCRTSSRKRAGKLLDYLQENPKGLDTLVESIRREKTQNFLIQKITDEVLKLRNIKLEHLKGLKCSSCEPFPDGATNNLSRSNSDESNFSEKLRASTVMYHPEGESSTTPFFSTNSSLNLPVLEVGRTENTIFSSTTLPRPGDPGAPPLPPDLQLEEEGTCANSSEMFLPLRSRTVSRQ
Description: MBP-BCL10 was expressed and purified as previously described. MBP-BCL10 and BCL10 peptide inhibitors were premixed at a 1:1 or 1:2 molar ratio at RT for 30 minutes before adding TEV to cleave the MBP tag. 5 μL of reaction mixture was applied to copper grids (Beijing Zhongjingkeyi Technology Co., Cat. No. BZ10024a), where it remained for 1 minute and was then negatively stained with 3% uranyl acetate for 1 minute, air-dried and imaged with a JEM-1230 TEM at 100 keV.

TMD8 cells = type: cell-based, human
From the text: as §1

[4] = tested on: HBL1, TMD8 and OCI-LY1 cells; experiment: Intracellular pharmacokinetics of biotinylated BCL10-P4 (streptavidin blot); type: in vitro ADME
Description: (§2) hActin- F: 5’-[…]-3’
(§3) hIL6-R: 5’- […]-3 ’.
(§4) hBcl10-F: 5’-[…] TAGAAA-3’
(§5) hBcl10-R: 5’-[…] T-3’
(§6) 1x105 HBL1, TMD8, OCl-LY 1 , OCl-LY 1 , U2932, MD901 or RCK8 cells were seeded in 12-well plate
(§7) wa sh e d and lysed with RIPA buffer.
(§8) immunoblotting with Streptavidin (Cell signaling, cat. #3999S). […]

DLBCL cell lines = type: cell-based
From the text: as §1

[5] = tested on: ABC-DLBCL cells (HBL1 and TMD8 cell lines); type: cell-based; details: 72 h
From the text: as §1

Jurkat cells = experiment: Growth inhibition; type: cell-based; details: Figure S3E; exposure time not given
From the text: as §1

293T = experiment: Growth inhibition, noncancerous cell line; type: cell-based
From the text: as §1

BPH-1 = experiment: Growth inhibition, noncancerous cell line; type: cell-based
From the text: as §1

HBL1 cells [6] = experiment: Intracellular pharmacokinetics, BCL10-P4 versus DRI-BCL10-P4; details: Figure 6B and S7A; western blot
Description: MBP-Bcl10 was expressed and purified as previously described {Qiao, 2013 #85}. Purified
mM NaCl, 1% NP-40) at 4 °C for 1 hour, followed by addition of 5% BSA blocked S t re ptavidin (SAV)
Immunoprecipitant were washed 5 times with IP buffer and separated by SDS-PA G E . […]
as §2, §3, §4, §5, §6, §7, §8

BCL10 [7] = target: T1, BCL10; experiment: Western blot of BCL10 protein level in DLBCL cells; type: cell-based; design: Western blot of BCL10 in cells treated with different concentrations of BCL10-P4 for 8 h; endogenous in cells; host or cells: HBL1, TMD8, OCI-LY1 DLBCL cells; details: HBL1 cells, BCL10-P4 1 h pretreatment, then MG132 or chloroquine 3 h; Figure 4H
Description: Cell pellets were lysed in RIPA buffer (50 mM Tris at pH 8.0, 150 mM NaCl, 1% NP-40, 1 mM EDTA, and 1X protease inhibitor cocktail) or RIPA buffer containing 0.1% SDS. Equal amounts of protein extracts were separated by SDS-PAGE and blotted onto polyvinylidene difluoride (PVDF) membranes.

SUDHL6 = type: cell-based, human; details: 24 h
From the text: as §1

SUDHL4 = type: cell-based; details: 24 h
From the text: as §1

KARPAS422 = type: cell-based; details: 24 h
From the text: as §1

RCK8 = type: cell-based; details: 24 h
From the text: as §1

OCI-LY3 = type: cell-based; details: 24 h
From the text: as §1

[8] = 5 μM biotinylated BCL10-P4, cell lysate blotted with streptavidin
[9] = noncancerous cell line, Figure S2C

Work on DRQIKIWFQNRRMKWKKEKIIAERHF [BCL10-P1] yielded a GI50 (HBL1 cells [1]; 72 h) of 53.9 ± 10.3 µM.

`C=CC(=O)N1CCC[C@@H](n2nc(-c3ccc(Oc4ccccc4)cc3)c3c(N)ncnc32)C1` [ibrutinib] was tested, and the “expression of NF-κB target genes (GSEA)” value [2] was “comparable to the effect of ibrutinib treatment”.

`CC[C@@H](C)[C@@H](NC(=O)[C@@H](CC(C)C)NC(=O)[C@@H](CO)NC(=O)[C@H](N)CCCNC(=N)N)C(=O)N[C@H](CCCCN)C(=O)N[C@H](CCCCN)C(=O)N[C@H](C)C(=O)N[C@H](CCCNC(=N)N)C(=O)N[C@H](CC(C)C)C(=O)N[C@H](Cc1c[nH]cn1)C(=O)N[C@H](CC(=O)O)C(=O)N[C@H](Cc1ccccc1)C(=O)N[C@H](Cc1c[nH]cn1)C(=O)N[C@H](CCCNC(=N)N)C(=O)N[C@H](CCCCN)C(=O)N[C@H](CCCCN)C(=O)N[C@H](Cc1c[nH]c2ccccc12)C(=O)N[C@H](CCCCN)C(=O)N[C@H](CCSC)C(=O)N[C@H](CCCNC(=N)N)C(=O)N[C@H](CCCNC(=N)N)C(=O)N[C@H](CC(N)=O)C(=O)N[C@H](CCC(N)=O)C(=O)N[C@H](Cc1ccccc1)C(=O)N[C@H](Cc1c[nH]c2ccccc12)C(=O)N[C@@H](C(=O)N[C@H](CCCCN)C(=O)N[C@@H](C(=O)N[C@H](CCC(N)=O)C(=O)N[C@H](CCCNC(=N)N)C(=O)N[C@H](CC(=O)O)C(=O)O)[C@H](C)CC)[C@H](C)CC` [DRI-BCL10-P2] (H-[dR][dS][dL][dI][dK][dK][dA][dR][dL][dH][dD][dF][dH][dR][dK][dK][dW][dK][dM][dR][dR][dN][dQ][dF][dW][dI][dK][dI][dQ][dR][dD]-OH; N-terminus and C-terminus assumed) was tested, and the “BCL10 filament formation (EM)” value (BCL10 [3]) was “inhibited Bc10 filament formation in vitro”, the GI50 (TMD8 cells) was 13.6 ± 2.3 µM and the GI50 (HBL1 cells [1]) was 7.64 ± 3.5 µM.

“DRQIKIWFQNRRMKWKKKGLDTLVESIRREKTQ [BCL10-P5]” was tested, and the GI50 (TMD8 cells; 72 h) was 49 ± 33.9 µM and the GI50 (HBL1 cells [1]; 72 h) was 66.5 ± 9.2 µM.

For “DRQIKIWFQNRRMKWKKRTSSRKRAGKLLDYLQE [BCL10-P4]”, the “cellular uptake (entry into cells)” value ([4]; 5 μM biotinylated BCL10-P4, 1-24 h, cell lysate blotted with streptavidin) was “comparable efficiency”, the “time of disappearance from cells” value [4, 8] was “approximately 24 h” and the “time of peak intracellular level” value [4, 8] was 1 to 2 h. The GI50 (TMD8 cells; 72 h, Figure 2B, mean ± SD of three independent experiments, read-out: GI50 TMD8) was 4.7 ± 1.8 µM, the GI50 (HBL1 cells [1]; 72 h, Figure 2B, mean ± SD of three independent experiments, read-out: GI50 HBL1) was 4.2 ± 1 µM and the GI50 (DLBCL cell lines; only exception U2932, read-out: GI50 values on most ABC-DLBCL cell lines) was less than 10 µM. For the same compound, the GI50 ([5]; text summary of Figure 2A-B, read-out: GI50 in the HBL1 and TMD8 cells) was 3 to 6 µM, the GI50 (Jurkat cells) was 10.3 ± 2.29 µM and the “growth inhibition effect on 293T” value (293T; [9]) was “neither BCL10-P2 nor BCL10-P4 displayed a growth inhibition effect”. For the same compound, the “growth inhibition effect on BPH-1” value (BPH-1; [9]) was “neither BCL10-P2 nor BCL10-P4 displayed a growth inhibition effect”, the “intracellular level after the first 4 h (intracellular stability)” value (HBL1 cells [6]) was “decreased rapidly thereafter” and the “uptake by HBL1 cells and level within the first 4 h” value (HBL1 cells [6]) was “similarly taken up”.

In the case of `CC(C)C[C@@H](C=O)NC(=O)[C@H](CC(C)C)NC(=O)[C@H](CC(C)C)NC(=O)OCc1ccccc1` [MG132] (Cbz-Leu-Leu-Leu-aldehyde), the “BCL10 degradation by BCL10-P4 with proteasome or autophagy inhibitor” value (BCL10 [7]) is reported as “negligibly prevented BCL10 degradation”.

In the case of `CCN(CC)CCCC(C)Nc1ccnc2cc(Cl)ccc12` (centres unmarked) [CHL, chloroquine], the “BCL10 degradation by BCL10-P4 with proteasome or autophagy inhibitor” value (BCL10 [7]) is reported as “prevented BCL10 degradation by BCL10-P4”.

For “DRQIKIWFQNRRMKWKKRHFDHLRAKKILSR [BCL10-P2]”, the GI50 (SUDHL6) was 5.42 ± 3.09 µM, the GI50 (TMD8 cells; 72 h) was 3.35 ± 1.1 µM and the GI50 (SUDHL4) was 2560 ± 230 nM. The GI50 (KARPAS422) was 5.39 ± 0.2 µM, the GI50 (RCK8) was 16 ± 12.3 µM and the GI50 (HBL1 cells [1]; 72 h) was 5.1 ± 0.8 µM. The GI50 (DLBCL cell lines) was less than 10 µM, the GI50 [5] was 3 to 6 µM and the GI50 (OCI-LY3) was 5.51 ± 0.9 µM. For the same compound, the “growth inhibition effect on 293T” value (293T) was “neither BCL10-P2 nor BCL10-P4 displayed a growth inhibition effect” and the “growth inhibition effect on BPH-1” value (BPH-1) was “neither BCL10-P2 nor BCL10-P4 displayed a growth inhibition effect”.
